# Data from PMC8178125, “The acyl chains of phosphoinositide PIP3 alter the structure and function of nuclear receptor steroidogenic factor-1” (Journal of Lipid Research, 2021).
# 5Fam = 5-carboxyfluorescein label on the N-terminus
# What was measured:
# human apo-SF-1 LBD [1] = target: T1, human apo-SF-1 LBD (Homo sapiens, UniProt Q13285, C247S/C412S); assay: Native gel (electromobility) shift assay of equilibrium phosphoinositide binding to apo-SF-1 LBD; settings: for Kd: apo-SF-1 LBD 1 μM, 37°C 1 h, 1-site binding model, SEM, read-out: apparent Kd of phosphoinositide binding to SF-1 LBD
# T1 construct: human SF-1 LBD comprising amino acids 218–461 of human SF-1; 6X-HIS (N, cleaved yes); TEV site (N, cleaved yes); made in house; host or cells: E. coli BL21 (DE3)
# Description: Apparent Kd interaction data of phosphoinositides was determined on human apo-SF-1 LBD by a previously described native gel shift assay ([21]) to monitor equilibrium binding to each phosphoinositide. Briefly, apo-SF-1 ligand binding domain was generated using an on-column washout procedure to remove bound phospholipid, wherein pure SF-1 bound to dipalmitoyl PIP3 was loaded onto a Mono Q column and washed with 1.0 L of 20 mM Hepes (8.0), 1 mM EDTA with 2 mM CHAPS at 2 ml/min to remove all bound phospholipid from SF-1 by on-column dilution. The buffer was then changed into 20 mM Hepes (8.0), 1 mM EDTA to remove detergents, and apo-SF-1 eluted using a ammonium acetate gradient, pooled, protein concentration quantitated, and then used in the phosphoinositide binding assay. For the phosphoinositide binding assay, each phosphoinositide was resuspended in water, sonicated, diluted, and stored under nitrogen at 4°C. Phosphoinositides were always re-sonicated immediately before use in binding assays. Two microliters of serially diluted phosphoinositide were added to binding reactions of 25 μl total volume, containing 1 μM final concentration of apo-SF-1 LBD in 20 mM Hepes (8.0), 1 mM EDTA, and 10 mM ammonium acetate in 200 μl polypropylene PCR strip tubes. Binding reactions were incubated at 37°C for 1 h in a PCR thermocycler with a heated reaction cover, the reaction mixed with 3 μl native loading buffer (40% glycerol, 0.005% Ponceau S) and run on a 4% to 16% polyacrylamide Bis-Tris NativePage™ gel (Invitrogen). After fixation and silver staining (BioRad), gels were scanned, the phosphoinositide-shifted band quantitated using NIH image, and apparent Kd determined by nonlinear curve fit to a single-site binding model in GraphPad Prism. Data represent at least three independent replicates.
# human apo-SF-1 LBD [2] = target: T1, human apo-SF-1 LBD; parameters: method as in PMID 25288771; settings: previous work; cited from earlier work
# human SF-1 LBD (2CS) = target: T2, human SF-1 LBD (2CS) (Homo sapiens, UniProt Q13285, C247S/C412S); assay: Fluorescence polarization coactivator binding assay: 5Fam-labeled PGC1α peptide binding to lipid-complexed SF-1 LBD; settings: SF-1 bound to dioleoyl vs dipalmitoyl PIP3
# T2 construct: human SF-1 LBD (218–461) 2CS “Cys-lite” mutant (C247S and C412S); 6X-HIS (N, cleaved yes); TEV site (N, cleaved yes); made in house; host or cells: E. coli BL21 (DE3); peptide purchased from New England Peptide
# Source text: The same human SF-1 LBD (2CS) construct used for crystallization was complexed with dioleoyl PIP3 and subjected to anion exchange chromatography to separate PIP3-bound species from bacterial phospholipid-bound species. PIP3-bound SF-1 elutes during anion exchange chromatography at higher ionic strength than bacterial phospholipid-bound SF-1 because of the negatively charged phosphates on the PIP3 headgroup. The PIP3-bound and bacterial phospholipid–bound fractions were pooled and concentrated as above, then serially diluted into assay buffer (20 mM Hepes [7.5], 150 mM NaCl) in black-walled 384-well nonprotein binding plates, with 50 μM SF-1 LBD as the highest concentration and a constant 25 μL volume in each well. Reproducibility in the FP assay critically relies on using nonprotein binding plates. To each well, an equal volume of N-terminal 5Fam-labeled PGC1α co-activator peptide (5Fam-EEPSLLKKLLLAPA-OH) was added to a final concentration of 100 nM fluorescently labeled peptide (purchased from New England Peptide). After a 1-h incubation nutating at room temperature in the dark, fluorescence polarization was measured on the Biotek Neo Plate reader at the Vanderbilt High-throughput Screening Center. Data were fit to a standard one-site binding model in GraphPad Prism, and all data represent at least three independent replicates.
# SF-1 LBD = target: T3, SF-1 LBD (Homo sapiens, UniProt Q13285, C247S/C412S); assay: Limited trypsin proteolytic sensitivity assay of SF-1 LBD bound to PIP3; settings: trypsin:SF-1 1:500 (w/w), 25°C, 60 min time course; compared with PIP3(16:0/16:0)
# T3 construct: human SF-1 LBD comprising amino acids 218–461 of human SF-1; 6X-HIS (N, cleaved yes); TEV site (N, cleaved yes); made in house; host or cells: E. coli BL21 (DE3)
# Description: Protease selection for limited digestion was carried out by adding elastase, thermolysin, proteinase K, or trypsin to SF-1 LBD in a protease:SF-1 LBD ratio of 1:500 (w/w), followed by incubation at 30 or 60 min and 10% SDS-PAGE followed by Coomassie stain. For determination of SF-1 proteolysis bound by PIP3(16:0/16:0) or PIP3(18:1/18:1), equal amounts of the purified SF-1 LBD used for crystallization without coactivator peptide were incubated with PIP3(16:0/16:0) or PIP3(18:1/18:1) at a protein:PIP3 molar ratio of 1:10, overnight at room temperature, a procedure determined in previous publications to result in complete PIP3 binding to SF-1 LBD. Limited proteolysis analysis was carried out by adding trypsin (Sigma) to SF1-PIP3 in a trypsin:SF-1 ratio of 1:500 (w/w), followed by incubation at 25°C for a 60 min time course. […] Gels were scanned, and the band intensities quantified using Image J (NIH). […]
# (also on this page, place not known: Time (min) Relative percentage protection 0.0002*** Supplemental Figure S1:SF-1 dioleoyl is dipalmitoyl PIP3(16:0/16:0). Coomassie-stained trypsin-digested PIP3 species, trypsin treated 60-minute time course, reactions boiled run gel. B.Relative quantitation expressed percentage signal from in lane, quantified using graph comparing either PIP3(16:0/16:0) indicated PIP3(18:1/18:1) indicated trypsin Sidak’smultiple n=3). […]
# [3] = target: T4, human SF-1 ligand binding domain (218–461) 2CS Cys-lite mutant (C247S and C412S) (human, UniProt Q13285 218-461, C247S | C412S); assay: fluorescence polarisation; SF-1 LBD bound to bacterial phospholipid serially diluted from 50 uM; 100 nM 5Fam-PGC1α peptide; 20 mM Hepes (7.5), 150 mM NaCl; 1 h at room temperature; one-site binding model; apparent Kd; settings: both partners purified
# T4 construct: also called SF-1 LBD; SF-1 LBD (2CS); not shown: His6, N-terminal, cleaved
# [4] = target: T5, human SF-1 LBD (218-461) 2CS Cys-lite mutant (C247S and C412S) (human, UniProt Q13285 218-461, C247S | C412S); assay: crystal structure; SF-1 LBD complexed with dioleoyl PIP3(18:1/18:1), then with 3-fold molar excess of PGC1α peptide; sitting drop, 20% PEG 3350, 0.2 M magnesium formate, 20°C; settings: both partners purified
# T5 construct: The His tag was removed with TEV; also called steroidogenic factor-1; NR5A1; source: complexed with dioleoyl PIP3, dipalmitoyl PIP3 or co-purifying bacterial phospholipid; not shown: His6, N-terminal, cleaved
# [5] = target: T5, human SF-1 LBD (218-461) 2CS Cys-lite …; assay: fluorescence polarisation; SF-1 LBD complexed with dioleoyl PIP3(18:1/18:1), serially diluted from 50 μM; 100 nM 5Fam-labeled peptide; 20 mM Hepes (7.5), 150 mM NaCl; 1 h at room temperature; one-site binding model; settings: both partners purified
# [6] = target: T5, human SF-1 LBD (218-461) 2CS Cys-lite …; assay: fluorescence polarisation; SF-1 LBD complexed with dipalmitoyl PIP3(16:0/16:0); 100 nM 5Fam-labeled peptide; 20 mM Hepes (7.5), 150 mM NaCl; 1 h at room temperature; one-site binding model; apparent; settings: both partners purified
# T5 sequence (Q13285 218-461 C247S/C412S): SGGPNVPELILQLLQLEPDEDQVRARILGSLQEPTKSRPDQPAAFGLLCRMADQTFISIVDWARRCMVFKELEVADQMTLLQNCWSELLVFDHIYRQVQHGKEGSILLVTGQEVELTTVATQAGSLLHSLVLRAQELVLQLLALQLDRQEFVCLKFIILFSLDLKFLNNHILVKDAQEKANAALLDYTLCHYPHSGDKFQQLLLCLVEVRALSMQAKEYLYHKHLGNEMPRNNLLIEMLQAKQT
# T1 sequence (Q13285 218-461 C247S/C412S): as above
# T2 sequence (Q13285 218-461 C247S/C412S): as above
# T3 sequence (Q13285 218-461 C247S/C412S): as above
# T4 sequence (Q13285 218-461 C247S/C412S): as above
molecule,measurement,setting,value
"CCCCCCCCCCCCCCCC(=O)OC[C@H](COP(=O)(O)OC1C(O)C(OP(=O)(O)O)C(OP(=O)(O)O)C(OP(=O)(O)O)C1O)OC(=O)CCCCCCCCCCCCCCC (stereo partly drawn) [dipalmitoyl PIP3, 1,2-dipalmitoyl-sn-glycero-3-[phosphoinositol-3,4,5-triphophosate]]",Kd,human apo-SF-1 LBD [1],130 ± 14 nM
same,affinity for SF-1,human apo-SF-1 LBD [2],nanomolar affinity
CCCCCCCCCCCCCCCC(=O)OCC(COP(=O)(O)OC1C(O)C(O)C(OP(=O)(O)O)C(OP(=O)(O)O)C1O)OC(=O)CCCCCCCCCCCCCCC (stereo not drawn) [dipalmitoyl (16:0/16:0) PIP2],Kd,human apo-SF-1 LBD [1],348 ± 42 nM
"CCCCCCCC/C=C\CCCCCCCC(=O)OC[C@H](COP(=O)(O)OC1C(O)C(OP(=O)(O)O)C(OP(=O)(O)O)C(OP(=O)(O)O)C1O)OC(=O)CCCCCCC/C=C\CCCCCCCC (stereo partly drawn) [dioleoyl PIP3, 1,2-di-(9Z-octadecenoyl)-sn-glycero-3-[phosphoinositol-3,4,5-trisphosphate]]",fold poorer affinity of PGC1α coactivator peptide for SF-1 compared with dipalmitoyl PIP3,human SF-1 LBD (2CS),6 fold
same,fold poorer affinity of PGC1α coactivator peptide for SF-1 compared with dipalmitoyl PIP3,human SF-1 LBD (2CS); listed as Dioleoyl PIP3(18:1/18:1),≥ 5 fold
same,trypsin protease sensitivity of SF-1 bound to the lipid,SF-1 LBD,increased trypsin protease sensitivity
same,Kd,human apo-SF-1 LBD [1],71 ± 10 nM
same,fold lower apparent Kd than dipalmitoyl (16:0/16:0) PIP3,human apo-SF-1 LBD [1]; dioleoyl vs dipalmitoyl PIP3 binding to SF-1 LBD,3 fold
5Fam-EEPSLLKKLLLAPA-OH (the validation report numbers the modelled residues P141-A152 (D2:p5); also called PGC1α peptide; fluorophore-labeled PGC1α peptide; source: synthetic peptide; bought: New England Peptide),Kd,[3],6800 ± 2000 nM
"H-EEPSLLKKLLLAPA-OH (Unlabelled peptide used for co-crystallisation, free N- and C-termini as printed; also called PGC1α peptide; source: synthetic peptide, bought: New England Peptide) [synthetic peptide representing the human PGC1α co-activator (H3N-EEPSLLKKLLLAPA-OH)]",binding result,[4],binds
"5Fam-EEPSLLKKLLLAPA-OH (also called fluorophore-labeled PGC1α peptide; fluorescently labeled peptide; source: synthetic peptide, bought: New England Peptide)",Kd,[5],> 42000 nM
same,Kd,[6],7700 ± 1400 nM
